Assay results as given in US20230416247A1, “DRUG-LIKE MOLECULES AND METHODS FOR THE THERAPEUTIC TARGETING OF MICRORNA-21” (University of Washington, priority 2020, published 2023).
“Also recorded” adds a separate entry of the source.

Columns and labels:
pre-miR-21 = assay: 1D 1H imino NMR / NOESY titration of pre-miR-21 with compound; assay type: binding, human; details: for closing of the apical loop of pre-miR-21 (new imino signals / base pairs): 1 mM pre-miR-21 titrated to 1.5 mM compound, 800 MHz, 5° C., 50 mM deuterated Tris pH 6.5, 50 mM NaCl; for binding to pre-miR-21 (NMR data): FIGS. 7A-7D
Protocol: All data were collected at 800 Mhz and at 5° C. in buffer containing 50 mM deuterated Tris at pH 6.5 and 50 mM NaCl.
Remarkably, the compounds have the unique capacity to ‘close the loop’ of pre-miR-21. This large change in RNA structure is shown in FIGS. 7A-7D, compared to the unbound RNA which are shown at the bottom of FIGS. 7A and 7C. […] The effect is very similar to what is observed with mutations that stabilize the loop structure by inducing stable formations of base pairs in place of unstable base pairs, and that also reduce miR-21 expression in both biochemical experiments and in cells, as reported in the literature. Accordingly, the compounds of formula (I) are specific pre-miR-21 binding compounds with the capacity to inhibit enzymatic processing of this oncogenic miRNA sequence.
RNA Transcription. All RNAs for ligand screening and structural or biochemical work were prepared in house using in vitro transcription on a large scale (typically 10 mL). RNA transcription and purification protocols used purified DNA oligonucleotide templates (IDT) and T7 RNA polymerase. Briefly, 1 mL of 8 μM TOP DNA (5′-CTATAGTGAGTCGTATTA-3′ (SEQ ID NO: 1)), corresponding to the phage T7 RNA polymerase promoter region, was annealed to 80 μL of 100 μM template sequences with 13 mM MgCl2, heated to 95° C. for […] then allowed to anneal to room temperature over 20 min. The annealing mixture was incubated with 5 mM of each of the four NTPs (ATP, GTP, UTP and CTP, from Sigma), transcription buffer, 8% PEG-8000 and 35 mM magnesium chloride with 0.4 mg/mL T7 RNA polymerase expressed and purified using established methods. All RNA samples are purified from crude transcriptions by 20% denaturing polyacrylamide gel electrophoresis (PAGE), electroeluted and concentrated by ethanol precipitation. The samples are re-dissolved in 12 mL of high salt wash (700 mM NaCl, 200 mM KCl, in 10 mM potassium phosphate at pH 6.5, with 10 μM EDTA to chelate any divalent ions), concentrated using Centriprep conical concentrators ([…] MWC, Millipore). The RNA was then slowly exchanged into low salt storage buffer (10 mM potassium phosphate at pH 6.5, with 10 mM NaCl and 10 μM EDTA). Prior to NMR experiments, all RNA samples were finally desalted using NAP-10 gravity columns, lyophilized and re-dissolved in ‘screening buffer’ or ‘structure buffer’ (see below), then annealed by heating for 4 min to 90° C. and snap cooling at −20° C.

[1] = test system: mature miR-21 and pre-miR-21 in ASPC1 cells; assay: qRT-PCR of mature miR-21 and pre-miR-21 in ASPC1 cells; assay type: cell-based, human; details: ASPC1, 10 nmoles, 48 hours, relative to DMSO control
Protocol: (§1) FIGS. 13A-13D compare levels of mature miR-21 and pre-mi-21 measured in gastric adenocarcinoma (AGS) (FIGS. 13A and 13B, respectively) and pancreatic cancer cell line (ASPC 1) (FIGS. 13C and 13D, respectively), normalized to internal controls (U6 or U8 snRNA), in the presence of 10 nmoles of palbociclib (used here as a negative control, not expected to affect microRNA levels) and compounds −0045 and −0052, 48 hours after incubation, relative to DMSO control, and measured by standard qRT-PCR. Statistically significant changes are labeled with asterisks.
(§2) Levels of mature miR-21 and its precursor pre-miR-21 were measured in gastric carcinoma (ASG) and pancreatic (ASPC1) cancer cell lines under conditions where we observed a decrease in proliferation (FIGS. 13A-13D), using the same blind format described above.
(§3) Cell line maintenance. Using the Cancer Cell Line Encyclopedia (CCLE), in-house cancer cell lines were screened to identify cancer and tissue types with varying levels of miR-21 expression. Experiments were performed using the human-derived cell lines AGS (gastric cancer) and AsPC-1 (pancreatic cancer). Cell lines were obtained from the American Type Culture Collection and maintained per instructions from the supplier. AGS were cultured in F12K medium supplemented with 10% FBS. AsPC-1 were cultured in RPMI, with 10% FBS added. All cells were kept at 37° C. in a humidified atmosphere of 5% CO2 and underwent regular mycoplasma testing. All experiments were conducted when cells were 70-80% confluent.
(§4) Quantitative real time PCR analysis. RNA was isolated utilizing Trizol (Invitrogen) and the Direct-zol RNA Miniprep kit (Zymo Research). RNA concentration was assessed with the NanoDrop ND-1000 spectrophotometer (ThermoFisher Scientific). All microRNAs expression was tested in the two representative cell lines using qRT-PCR. Cells were seeded in 6-well plates 24 hours before treatment, at a cell confluency of 50-60%. Each cell line was treated with 10 μM compound or with only the dimethyl sulfoxide (DMSO) solvent. RNA was collected after the 48-hour time point. Expression of miR-21 was assessed utilizing the TaqMan microRNA assay (Applied Biosystems). The complementary DNA (cDNA) was synthesized using the TaqMan Reverse Transcription Reagents kit (Applied Biosystems) and was used with the TaqMan probes and Supermix (BioRad) for qRT-PCR analysis. U6 or U48 were used as internal controls for RNA levels. All experiments were performed in triplicate, with all samples normalized to the internal controls and relative expression levels calculated using the 2^ΔΔCt method.

[2] = test system: mature miR-21 and pre-miR-21 in AGS cells; assay: qRT-PCR of mature miR-21 and pre-miR-21 in AGS cells; assay type: cell-based, human; details: 10 nmoles, 48 hours, relative to DMSO control
Protocol: as §1, §2, §3, §4

O=c1[nH]c(Nc2ccc(N3CCNCC3)cn2)nc2cnccc12 [Compound 30]
closing of the apical loop of pre-miR-21 (new imino signals / base pairs) (pre-miR-21): emergence of new imino NH chemical shift resonances for the apical loop portion
binding to pre-miR-21 (NMR data) (pre-miR-21): bind to pre-miR-21 strongly
decrease in mature miR-21 levels [1]: 40%
pre-miR-21 levels [1]: reduction in pre-miR-21 levels
decrease in mature miR-21 levels [2]: 40%
pre-miR-21 levels [2]: reduction in pre-miR-21 levels

O=c1[nH]c(Nc2ccc(N3CCNCC3)cn2)nc2cccnc12 [Compound 25]
closing of the apical loop of pre-miR-21 (new imino signals / base pairs) (pre-miR-21): formation of the putative tandem UG/GU wobble pair in the apical loop; also recorded: emergence of new imino NH chemical shift resonances for the apical loop portion
binding to pre-miR-21 (NMR data) (pre-miR-21): bind to pre-miR-21 strongly
decrease in mature miR-21 levels [1]: 40%
pre-miR-21 levels [1]: reduction in pre-miR-21 levels
decrease in mature miR-21 levels [2]: 40%
pre-miR-21 levels [2]: reduction in pre-miR-21 levels
